Measured values reported in patent US10934303B2, “Aryl ethene derivative and pharmaceutical composition containing same as active ingredient” (priority 2016, dated 2021).

How the values were obtained:
ERRγ mRNA = assay: Quantitative RT-PCR, ERRγ mRNA in CAL62 cells; format: cell-based
Procedure: (§1) Total RNA was separated using Trizol (Invitrogen, Carlsbad, Calif.). Total RNA (2 ug) was reverse-transcribed into cDNA with RevertAid First Strand cDNA Synthesis Kit (Thermo Scientific, Pittsburgh, Pa.). Genes were amplified with a ViiA 7 Real-Time PCR System instrument (Applied Biosystems) using the primer of each target gene and YBR Green PCR master mix (Applied Biosystems, Foster City, Calif.), using a cDNA template. The primer sequence of each target gene is as follows: ERRγ (forward, 5′-CAG ACG CCA GTG GGA GCT A-3′; reverse, 5′-TGGCGAGTCAAGTCCGTTCT-3′), NIS (forward, 5′-TCTAACCGATGCTCACCTCTTCTG-3′; reverse, 5′-AGATGATGGCACCTCCTTGAACC-3′), and acidic ribosomal protein 36B4 (forward, 5′-CCA CGC TGC TGA ACA TGC T-3′; reverse, 5′-TCGAACACCTGCTGGATGAC-3′). Each target gene was normalized using a 36B4 gene.

in vitro = in vitro ADME; conditions: PBS pH 7.4, 25° C., 5 hours
Procedure: 3) Parallel Artificial Membrane Permeability Assay (PAMPA) Evaluation
PAMPA is a method which has been developed for testing cell membrane permeability of a material in a test tube, and has been performed using a lipid tri-layer PVDF membrane available from Corning Gentest (NY, US), the used reagents were all purchased from Sigma (MO, US). First, a test material is diluted in PBS (pH 7.4) to a final concentration of 10 mM, 300 mL of the solution is added to the bottom well of a 96-transwell equipped with a PVDF membrane, and 200 mL of PBS is added to the upper well. Then, a plate is reacted at 25° C. for 5 hours, 20 mL of the solution in each well is transferred to a new container, and 80 mL of acetonitrile containing an internal standard material (4 mM chloropropamide) is added thereto. A concentration of the material in the solution is analyzed using LC-MS/MS (ThermoFisher Scientific, MO, US), and the transmittance of the material is calculated according to the equation reported in the reference document.

CYP2C9 = CYP2C9 (Homo sapiens (Human), UniProt P11712); assay: Cytochrome P450 activity inhibition, CYP2C9; format: in vitro ADME; conditions: 10 μM, human liver microsomes, Diclofenac substrate
Excerpt: (§2) 1) Cytochrome P450 (CYP450) Activity Inhibition Evaluation

in vivo = format: in vivo; conditions: rat
[1] = system: CAL-62 anaplastic thyroid cancer cell line; format: cell-based; conditions: for each concentration and each time
CYP2D6 = CYP2D6 (Homo sapiens (Human), UniProt P10635); assay: Cytochrome P450 activity inhibition, CYP2D6; format: in vitro ADME; conditions: 10 μM, human liver microsomes, Dextromethorphan substrate
Excerpt: as §2

CAL-62/effluc tumor [2] = assay: Tumor growth by bioluminescent imaging in CAL-62/effluc mouse tumor model; format: in vivo, Nude mice (Balb/c nu/nu); conditions: 100 mpk, 200 mpk orally daily for 6 days
Procedure: (§3) Nude mice (Balb/c nu/nu, female, 6 weeks old) were used, and all animals were normally raised in DMRC center animal laboratory of Kyungbuk National University Hospital in Chilgok. 5×10^6 CAL-62/effluc cells were subcutaneously injected into the left femoral region of the nude mouse to form a tumor. The tumor was extracted, divided into small pieces (20 mg or more), and then intradermally injected into the nude mouse to form a tumor.
In order to observe a difference in tumor growth between before administration and after administration, optical imaging (bioluminescent imaging) was performed.
For obtaining an optical image, D-luciferin (3 mg/mouse) was intraperitoneally injected to the mouse. After about 10 minutes of injection, the mouse was anesthetized by inhalation (I-2% isoflurane gas), and then positioned on a IVIS Lumina III (PerkinElmer) imaging bed. The time for obtaining the image was automatically set, and then an optical image was obtained.

CYP3A4 = CYP3A4 (Homo sapiens (Human), UniProt P08684); assay: Cytochrome P450 activity inhibition, CYP3A4; format: in vitro ADME; conditions: 10 μM, human liver microsomes, Midazolam substrate
Excerpt: as §2

ERRγ protein = assay: Western blot, ERRγ protein in CAL62 cells; format: cell-based; conditions: 24 hours
GST-bound ERR alpha LBD = GST-bound ERR alpha LBD (Homo sapiens (Human), UniProt P11474); conditions: TR-FRET, PGC1a coactivator; read-out: Binding Assay, IC50 ERRα
Procedure: The arylethene derivative of the present invention was sequentially added to a 384 well plate from a concentration of 10 μM to a final concentration of two-fold dilution. […] After all reagents were added, a reaction was carried out with gentle shaking at 20° C. for 1 hour, and after the reaction, a binding activity was measured by a TR-FRET method.

CAL62 cells = assay: Clonogenic assay with 131I; format: cell-based; conditions: CAL62 cells, single agent
Procedure: The cells were plated in a 6-well plate, and allowed to stand for 24 hours. […] The cells were washed with cold bHBSS, and allowed to stand in a normalized culture medium for a time corresponding to six doublings. Finally, the cells were fixed in a 4% paraformaldehyde (PFA) solution and stained with 0.05% crystal violet.

NIS mRNA = assay: Quantitative RT-PCR, NIS mRNA in CAL62 cells; format: cell-based
Procedure: as §1

CYP2C19 = CYP2C19 (Homo sapiens (Human), UniProt P33261); assay: Cytochrome P450 activity inhibition, CYP2C19; format: in vitro ADME; conditions: 10 μM, human liver microsomes, S-mephenytoin substrate
Excerpt: as §2

ERRγ = format: cell-based
Procedure: AD293 was cultured in a 24-well plate for 24 hours, using a DMEM High glucose culture medium (Hyclone, USA) to which 0.5% FBS was added at a concentration of 9×10^4/well. The culture medium was replaced with a DMEM High glucose culture medium to which 10% FBS was added, treatment was performed with a mixture of a TransIT-LT1 transfection reagent (Mirus, USA) and pCMX-Gal4-ERRγ, pFR-luciferase reporter plasmid, pCMV-β-gal, and culturing was performed for 24 hours. Thereafter, a luciferase activity assay and a β-gal assay were performed, respectively, with a lysate obtained after treatment with the arylethene derivative of the present invention for 24 hours. All results were derived from three or more independent repetitive experiments.

CYP1A2 = CYP1A2 (Homo sapiens (Human), UniProt P05177); assay: Cytochrome P450 activity inhibition, CYP1A2; format: in vitro ADME; conditions: 10 μM, human liver microsomes, Phenacetin substrate
Excerpt: as §2

CAL-62/effluc tumor [3] = assay: 125I bio-distribution study in CAL-62/effluc mouse tumor model; format: in vivo, Nude mice (Balb/c nu/nu)
Procedure: as §3
After 4 hours of administration, all organs including a parent tumor were extracted, and each organ was weighed. Thereafter, each organ was transferred to a 5 mL test tube, and radioactivity in the organ was measured using a gamma counter.

hERG channel = hERG channel (Homo sapiens (Human), UniProt Q12809); conditions: read-out: hERG IC50; fluorescence polarization assay
NIS protein = assay: Western blot, total and membrane-localized NIS protein in CAL62 cells; format: cell-based

CYP2C19, sequence (P33261 whole entry): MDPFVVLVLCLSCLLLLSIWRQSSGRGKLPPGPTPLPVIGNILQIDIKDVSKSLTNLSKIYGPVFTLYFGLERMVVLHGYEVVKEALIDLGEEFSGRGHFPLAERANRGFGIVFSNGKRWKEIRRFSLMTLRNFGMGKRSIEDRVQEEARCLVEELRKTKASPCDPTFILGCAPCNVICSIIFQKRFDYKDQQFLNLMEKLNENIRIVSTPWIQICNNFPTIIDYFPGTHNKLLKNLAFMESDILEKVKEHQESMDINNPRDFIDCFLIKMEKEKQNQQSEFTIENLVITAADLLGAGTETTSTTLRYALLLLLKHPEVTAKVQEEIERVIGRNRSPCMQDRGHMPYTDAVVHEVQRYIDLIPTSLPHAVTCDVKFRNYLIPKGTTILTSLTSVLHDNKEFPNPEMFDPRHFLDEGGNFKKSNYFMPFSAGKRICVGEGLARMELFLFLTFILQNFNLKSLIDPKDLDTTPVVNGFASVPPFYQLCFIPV
CYP2D6, sequence (P10635 whole entry): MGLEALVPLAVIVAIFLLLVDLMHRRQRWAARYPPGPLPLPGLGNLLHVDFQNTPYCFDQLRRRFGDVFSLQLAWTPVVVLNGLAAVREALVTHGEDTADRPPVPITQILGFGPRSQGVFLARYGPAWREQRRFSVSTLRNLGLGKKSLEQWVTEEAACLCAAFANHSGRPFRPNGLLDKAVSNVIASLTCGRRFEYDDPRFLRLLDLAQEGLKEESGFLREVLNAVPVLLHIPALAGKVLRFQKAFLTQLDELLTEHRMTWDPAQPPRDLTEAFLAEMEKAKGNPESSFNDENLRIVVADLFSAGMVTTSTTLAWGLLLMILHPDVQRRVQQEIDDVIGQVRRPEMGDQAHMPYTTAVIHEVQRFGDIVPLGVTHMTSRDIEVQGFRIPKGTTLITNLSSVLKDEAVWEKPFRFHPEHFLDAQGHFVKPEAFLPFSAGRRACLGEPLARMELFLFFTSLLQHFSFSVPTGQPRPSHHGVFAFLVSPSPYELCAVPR
CYP3A4, sequence (P08684 whole entry): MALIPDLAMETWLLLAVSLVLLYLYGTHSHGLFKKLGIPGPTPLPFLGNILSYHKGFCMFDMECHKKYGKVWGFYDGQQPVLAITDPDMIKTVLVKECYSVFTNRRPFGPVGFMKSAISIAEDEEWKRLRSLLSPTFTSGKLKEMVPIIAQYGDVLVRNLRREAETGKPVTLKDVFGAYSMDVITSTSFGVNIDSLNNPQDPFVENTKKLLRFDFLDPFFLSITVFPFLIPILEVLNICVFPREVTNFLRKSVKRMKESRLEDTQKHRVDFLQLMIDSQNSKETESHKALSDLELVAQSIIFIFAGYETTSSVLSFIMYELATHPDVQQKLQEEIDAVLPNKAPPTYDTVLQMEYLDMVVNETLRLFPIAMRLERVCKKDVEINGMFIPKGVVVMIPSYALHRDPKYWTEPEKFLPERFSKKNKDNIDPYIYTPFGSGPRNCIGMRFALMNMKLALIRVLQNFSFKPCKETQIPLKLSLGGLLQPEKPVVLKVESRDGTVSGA
CYP2C9, sequence (P11712 whole entry): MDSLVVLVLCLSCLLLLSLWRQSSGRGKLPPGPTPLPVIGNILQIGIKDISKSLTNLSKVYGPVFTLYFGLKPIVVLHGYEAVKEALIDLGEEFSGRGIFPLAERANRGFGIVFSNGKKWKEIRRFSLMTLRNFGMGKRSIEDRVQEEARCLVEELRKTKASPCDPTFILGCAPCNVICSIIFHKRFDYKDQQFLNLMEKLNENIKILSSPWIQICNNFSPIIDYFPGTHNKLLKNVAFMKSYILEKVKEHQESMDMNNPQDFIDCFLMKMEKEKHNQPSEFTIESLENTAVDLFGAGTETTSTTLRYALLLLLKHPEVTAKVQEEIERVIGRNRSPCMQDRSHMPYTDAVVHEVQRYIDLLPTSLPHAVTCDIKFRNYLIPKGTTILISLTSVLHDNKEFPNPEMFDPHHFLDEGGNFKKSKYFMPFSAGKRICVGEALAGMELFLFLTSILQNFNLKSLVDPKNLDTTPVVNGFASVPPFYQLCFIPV
CYP1A2, sequence (P05177 whole entry): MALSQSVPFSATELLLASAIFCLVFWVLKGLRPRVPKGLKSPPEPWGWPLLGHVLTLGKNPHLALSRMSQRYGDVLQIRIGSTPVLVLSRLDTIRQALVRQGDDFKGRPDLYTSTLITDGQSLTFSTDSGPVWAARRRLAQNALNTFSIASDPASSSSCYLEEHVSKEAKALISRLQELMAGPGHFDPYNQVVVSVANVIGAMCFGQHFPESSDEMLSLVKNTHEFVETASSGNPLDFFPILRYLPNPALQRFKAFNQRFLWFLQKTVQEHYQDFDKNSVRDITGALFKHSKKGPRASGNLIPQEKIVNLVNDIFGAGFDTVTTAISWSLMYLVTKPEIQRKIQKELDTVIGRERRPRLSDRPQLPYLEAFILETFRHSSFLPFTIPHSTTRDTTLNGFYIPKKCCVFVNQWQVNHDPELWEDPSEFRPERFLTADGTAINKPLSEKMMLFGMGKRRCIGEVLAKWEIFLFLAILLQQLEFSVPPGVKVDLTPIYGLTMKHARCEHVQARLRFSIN
GST-bound ERR alpha LBD, sequence (P11474 193-421): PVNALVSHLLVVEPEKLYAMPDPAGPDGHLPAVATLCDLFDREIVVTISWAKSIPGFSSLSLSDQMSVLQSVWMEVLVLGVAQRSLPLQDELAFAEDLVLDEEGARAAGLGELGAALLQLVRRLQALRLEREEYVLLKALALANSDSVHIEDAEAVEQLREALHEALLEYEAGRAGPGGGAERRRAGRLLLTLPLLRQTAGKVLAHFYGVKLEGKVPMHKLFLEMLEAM

CC(C)N1CCN(c2ccc(C(=C(CCCO)c3ccccc3)c3ccc(O)cc3)cc2)CC1 [Compound 18a]
ERRγ mRNA expression, decrease compared with vehicle treated group (ERRγ mRNA): about 16 times
Permeability Pampa (in vitro): 0.46 10^−6 cm/s
CYP inhibition (% of control) 2C9 (CYP2C9): 86.1 % of control
AUCINF (in vivo; IV, 1 mg/kg): 0.49 μMh
AUCall (in vivo; IV, 1 mg/kg): 0.42 μMh
Vss (in vivo; IV, 1 mg/kg): 25.2 L/kg
t1/2 (in vivo; IV, 1 mg/kg): 3.8 h
AUCINF (in vivo; PO, 10 mg/kg): 1.29 μMh
AUCall (in vivo; PO, 10 mg/kg): 0.81 μMh
BA (in vivo; PO, 10 mg/kg): 21.4%
Tmax (in vivo; PO, 10 mg/kg): 1.1 h
Cmax (in vivo; PO, 10 mg/kg, read-out: Cmax): 210 nM
radioactive iodine uptake in CAL62 cells [1]: significant increase
CYP inhibition (% of control) 2D6 (CYP2D6): 63.5 % of control
tumor growth (optical imaging) (CAL-62/effluc tumor [2]): significant tumor growth inhibitory efficiency
CYP inhibition (% of control) 3A4 (CYP3A4): 66.4 % of control
ERRγ protein expression, decrease compared with vehicle treated group (ERRγ protein): about 2.8 times
IC50 (GST-bound ERR alpha LBD): > 10 µM
cytotoxic effect, alone (clone formation assay) (CAL62 cells): minimal cytotoxic effect
NIS mRNA expression, increase compared with vehicle-treated group (NIS mRNA): about 2 times
CYP inhibition (% of control) 2C19 (CYP2C19): 81.2 % of control
Functional Assay at 10 μM (% of control), Cpds (ERRγ; 10 μM, 24 hours, AD293): 4.83 % of control
Functional Assay, Cpds/Ref 5182 (ERRγ; activity relative to reference compound GSK5182, 10 μM): 1.18
CYP inhibition (% of control) 1A2 (CYP1A2): 88 % of control
radioactive uptake in CAL62 tumor, increase compared with vehicle group (CAL-62/effluc tumor [3]; 100 mpk orally daily for 6 days): 4.4 times
radioactive uptake in CAL62 tumor, increase compared with vehicle group (CAL-62/effluc tumor [3]; 200 mpk orally daily for 6 days): 16.2 times
IC50 (hERG channel): 18.7 µM
increase in membrane fully glycosylated NIS protein (NIS protein; biotinylated membrane protein): 8.1 times
increase in membrane partially glycosylated NIS protein (NIS protein; biotinylated membrane protein): 6.4 times
total NIS protein expression, change compared with vehicle treated group (NIS protein; text says significantly increased, then 'decreased by'): about 1.9 times
